Experimental data from PubChem BioAssay AID1645864 (Buhrlage Lab, Dana-Farber Cancer Institute and Novartis …, 2021).
Calls of active or inactive are those of the source.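 The calls were made as follows: active = maximal inhibition of USP17 at or above 30% in the confirmation dose-response, a value not among the printed readouts; inactive = the rest.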

Target: Ubiquitin carboxyl-terminal hydrolase 17-like protein 5 (Homo sapiens) (UniProt A8MUK1)
Test: ubiquitin-specific protease 17 DUB inhibitors, concentration-effect assay, cell-free, verification of initial screening actives (AID 1645864)
Conditions: purified USP17, ubiquitin-rhodamine cleavage fluorescence, 3 h

Ubiquitin carboxyl-terminal hydrolase 17-like protein 5 (Homo sapiens), sequence (A8MUK1 whole entry, looked up): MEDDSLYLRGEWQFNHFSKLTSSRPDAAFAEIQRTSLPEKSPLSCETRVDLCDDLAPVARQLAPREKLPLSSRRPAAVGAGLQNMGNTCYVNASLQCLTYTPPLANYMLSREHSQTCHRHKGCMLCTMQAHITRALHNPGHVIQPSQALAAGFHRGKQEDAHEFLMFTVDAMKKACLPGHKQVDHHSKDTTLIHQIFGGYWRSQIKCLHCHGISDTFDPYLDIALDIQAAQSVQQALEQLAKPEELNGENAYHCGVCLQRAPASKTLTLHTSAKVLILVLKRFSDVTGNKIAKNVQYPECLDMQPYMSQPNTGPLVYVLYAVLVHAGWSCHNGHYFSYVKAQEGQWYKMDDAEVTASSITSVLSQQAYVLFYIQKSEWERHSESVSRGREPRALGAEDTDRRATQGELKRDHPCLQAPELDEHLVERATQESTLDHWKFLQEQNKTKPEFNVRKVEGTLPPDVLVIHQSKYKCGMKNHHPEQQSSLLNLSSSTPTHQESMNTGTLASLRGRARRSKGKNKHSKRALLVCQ

IC50	SMILES
4.48 µM	COc1cc(Cl)ccc1C(=O)Nc1cccc(-n2cnnn2)c1C
3.15 µM	O=C(NCc1ccc2c(c1)OCO2)c1cc(-c2cc(Cl)ccc2O)n[nH]1
> 50 µM (inactive)	CCn1c(SCc2cccc(C)c2)nnc1-c1cnccn1
2.62 µM	COc1ccc(Nc2nc3c(S(=O)(=O)c4ccc(C)cc4)nnn3c3ccsc23)c(OC)c1
> 50 µM (inactive)	COc1cccc(-c2nc(C(N)=O)c3[nH]c(=O)n(-c4cccc(Cl)c4)c3n2)c1OC
11.6 µM	N#Cc1ccc(NC(=O)c2ccc(S(=O)(=O)N3CCCCC3)cc2)cc1
33 µM	Cc1nn(-c2ccc([N+](=O)[O-])cc2)c(C)c1-c1nc2ccccc2[nH]1
34.7 µM	Cc1[nH]nc(NC(=O)C2COc3ccccc3O2)c1-c1ccccc1 (centres undefined)
> 50 µM (inactive)	Cc1cc(C)c2c(-n3cccc3)c(C(=O)NCCc3ccc(S(N)(=O)=O)cc3)sc2n1
48 µM	COc1ccc2[nH]cc(S(=O)(=O)c3ccc(C)c(F)c3)c(=O)c2c1
> 50 µM (inactive)	CC(C)Cc1nc2oc3c(N(C)CCO)ncnc3c2c2c1CCC2
40.6 µM	Cc1nn(-c2ccccc2)c(C)c1C(=O)OCC(=O)Nc1cccc(Br)c1
24.2 µM	Cc1cc(=O)n(CC(=O)NCc2ccccc2F)c2c1c(C)nn2-c1ccccc1
> 50 µM (inactive)	COC(=O)c1ccc(Cn2cnc3ccc(Br)cc3c2=O)o1
39.9 µM	O=C(Nc1cccc(F)c1)C1CCCN(S(=O)(=O)N2CCCCCC2)C1 (centres undefined)
14.6 µM	Cc1ccc(NC(=O)CNC(=O)c2cc3ccccc3o2)cc1
19 µM	O=C(Cn1cncc(C(=O)NC2CCCC2)c1=O)Nc1cccc(F)c1
> 50 µM (inactive)	COc1cc(C(=O)Nc2ccc(-c3csc(C)n3)cc2)cc(OC)c1OC
> 50 µM (inactive)	c1ccc2c(Cc3nc(-c4ccncc4)no3)cccc2c1

IC50	SMILES
33.9 µM	COc1ccc(C(=O)Nc2cc(F)c3nc(N4CCOCC4)ccc3c2)c(OC)c1
20.6 µM	O=C(c1ccco1)N1CCC2(CC1)CC1(CO2)Nc2ccccc2-n2cccc21 (centres undefined)
> 50 µM (inactive)	CCN(CC)c1cc(C)c2cc(NC(=O)c3ccncc3)ccc2n1
> 50 µM (inactive)	CC(C)(C)C(=O)C1C2C(=O)N(c3ccc4c(c3)OCO4)C(=O)C2C2c3ccccc3C=CN12 (centres undefined)
> 50 µM (inactive)	O=C1N(Cc2ccc(F)cc2)CCN1c1ccc(C(F)(F)F)cn1
> 50 µM (inactive)	c1ccc2c(c1)CCc1c-2nc2ccccc2c1N1CCOCC1
2.85 µM	CC(c1ccccc1)n1c(-c2ccc(F)cc2)nc2c(c(=O)c3ccccc3n2C)c1=O (centres undefined)
> 50 µM (inactive)	O=C(Nc1cccc(S(=O)(=O)N2CCCC2)c1)c1ccc2c(=O)n3c(nc2c1)CCCCC3
3.06 µM	CCc1c(C)c(C#N)c2nc3ccccc3n2c1N1CCN(C2CCCC2)CC1
2.37 µM	COc1cc(Cl)c(C)cc1NC(=O)Cn1c(=O)n(CC(=O)NCc2ccco2)c(=O)c2ccccc21
3.32 µM	O=C(/C=C/C=C/C=C/C1CCCCC1)NC1=C[C@@](O)(/C=C/C=C/C=C/C(=O)NC2=C(O)CCC2=O)[C@@H]2O[C@@H]2C1=O
> 50 µM (inactive)	COc1ccccc1C(=O)NCC(c1ccc2c(c1)CCCN2C)N1CCCC1 (centres undefined)
> 50 µM (inactive)	Cc1ccc(C(=O)N2CCCC3(C2)Nc2cccnc2NC3=NC2CCCC2)s1 (centres undefined)
> 50 µM (inactive)	COc1ccc(S(=O)(=O)N(C)Cc2cccs2)cc1OC
19.9 µM	CCOc1ccc(NC(=O)c2cc(-c3ccccc3)c(N3CCOCC3)s2)cc1
> 50 µM (inactive)	CCn1ccc2c(cc(C(=O)Nc3ccccc3F)n2C)c1=O
28.6 µM	COc1ccc(CCNC(=O)CCn2c(=O)c3ccccc3n(Cc3ccc(C)cc3)c2=O)cc1OC
1.7 µM	O=C(COc1ccc2c(-c3ccccc3)cc(=O)oc2c1)Nc1cccnc1
47.4 µM	NS(=O)(=O)c1cc(C(=O)OCC(=O)NC2CCCc3ccccc32)ccc1Cl (centres undefined)

SMILES	IC50
COC(=O)[C@]1(O)O[C@@]2(C(=O)OC)c3c(oc4cc(C)cc(O)c4c3=O)[C@H]3c4c(oc5cc(C)cc(O)c5c4=O)C[C@H]1[C@H]32	> 50 µM (inactive)
